Experiments:
hESC-CMs [1] = test: Nuclear condensation by Hoechst 33342 stain (cardiomyocyte apoptosis); type: cell-based, human
Procedure: (§1) To evaluate mitochondrial morphology as a surrogate of cell and mitochondrial viability, hESC-CMs were incubated in B27+/RPMI−1640 media containing 50 nmol/L MitoTracker Deep Red (MTDR) (Thermo Fisher Scientific, USA), and 1 μg/ml Hoechst 33342 (Thermo Fisher Scientific, USA) for 20 minutes. Microscopic images were acquired using DMi8s Research Inverted Thunder Imager Live Cell System (Leica, Germany). For MTDR and Hoechst 33342 imaging, excitation wavelengths of […] and 480 nm, respectively, were used. Mitochondrial morphology was classified into three categories: i) elongated, ii) punctate, and iii) perinuclear. Nuclear morphology was classified as either condensed or normal.

hESC-CMs [2] = test: Mitochondrial morphology analysis (MitoTracker Deep Red); type: cell-based, human
Procedure: as §1

hESC-CMs [3] = test: α-actinin immunostaining for sarcomeric integrity; type: cell-based, human
Procedure: hESC-CMs were permeabilized using 0.1% Triton X-100 (Thermo Fisher Scientific, USA). After permeabilizing for 15 minutes, cells were washed three times in PBS, and further permeabilization was blocked by incubating cells in PBS with 10% FBS (Hyclone, USA) for 1 hour at room temperature. Cells were incubated with the primary anti-actinin antibody (1:400) (Abcam, UK) and diluted in PBS with 10% FBS overnight. Cells were then washed three times with PBS and incubated with a goat anti-mouse IgG1 secondary antibody (1:1000 diluted in PBS with 10% FBS) (Thermo Fisher Scientific, USA) for 1 hour at room temperature. Finally, cells were washed twice with PBS and mounted using ibidi mounting medium with DAPI (Ibidi, Germany). Microscopic images were acquired using the DMi8s Research Inverted Thunder Imager Live Cell System (Leica, Germany) at 20×, 40×, and 100× magnification.

hESC-CMs [4] = test: Real-time PCR of genes important for mitochondrial function; type: cell-based, human
Procedure: RNA was extracted using TRIzol™ Reagent (Thermo Fisher Scientific, USA) as per manufacturer's protocol. RNase-free reagents and consumables were used. RNA concentration and A260/280 ratio were determined using Synergy HTX Multi-Mode microplate reader (Agilent Technologies, USA).
cDNA was synthesized using the PrimeScript™ RT Master Mix (Takara, Japan) for real-time quantitative polymerase chain reaction (qPCR). Briefly, reverse transcription used 2 μl of 5× PrimeScript™ RT Master Mix, 0.5 μg of total RNA, and RNase-free dH2O added to total mixture volume of 10 μl. The reaction was carried out at 37° C. for 15 minutes and 85° C. for 5 seconds.
qPCR was performed using SYBR Green Master Mix (Promega, USA) as per manufacturer's protocol. A total reaction volume of 10 μl included 5 μl GoTaq® qPCR Master Mix 2×, 0.3 μl 10 nmol/L primers mix, and 30 ng cDNA template. The qPCR condition was: 1 cycle of 95° C. for 2 minutes, 40 cycles of 95° C. for 3 seconds, and 60° C. for 30 seconds. Expression level of genes was quantified using the 2^−ΔΔCT method on a ABI QuantStudio 12-Flex QPCR System W/96 Fast & 384 (Thermo Fisher Scientific, USA). Primer sequences used were summarized as follows for the respective gene sequences (Table 2).

C57BL/6J male mice = test: Noninvasive blood pressure in mouse doxorubicin cardiotoxicity model; type: in vivo; details: for Day 28 DBP / Day 28 SBP: after doxorubicin 5 mg/kg intraperitoneal once weekly for four weeks (Dox + groups); for Day 28 DBP / Day 28 SBP / Day 0 DBP / Day 0 SBP: n = 4 per group; for Day 0 DBP / Day 0 SBP: before doxorubicin administration
Description: Recombinant human GDF15/MIC-1 protein (CHO-derived) was purchased from PeproTech Inc. (Cranbury, USA) and described in Example 1. […] PubChem identifier number 71384) were purchased from Abcam (Cambridge, UK). For in vitro studies, solid lyophilized powder of these two drugs were solubilized at the recommended concentrations in sterile water, and separate aliquots were made and frozen until thawing prior to addition to cell cultures. […] The recommended dose ratio of dexrazoxane to doxorubicin was 10 to 1. In the following examples, 5 mg/kg of doxorubicin was used which correspond to 50 mg/kg of dexrazoxane. The FDA recommends that dexrazoxane be injected within 0.5 hour prior to doxorubicin infusion in individuals. This was followed in the same manner when applying to the test animals. Ten- to twelve-week old C57BL/6J male mice were purchased from the Laboratory Animal Services Centre of CUHK. They were maintained in specific pathogen-free facility of the CUHK Laboratory Animal Services Centre Research Unit at Prince of Wales Hospital with free access to food and water and maintained in a light/night cycle of 12 hours/12 hours. All mice were fed a standard diet. Blood pressure of animals was measured using the noninvasive CODA® High Throughput System (Torrington, USA) in accordance with the manufacturer's instructions. Measurement platform was prewarmed and maintained at 33-35° C. O-cuffs and VPR-cuffs were used as instructed. Blood pressure of each mouse was measured for at least three cycles. Mice were released and returned to their cages immediately after measurement. Blood pressure was measured twice, once at the beginning of the experiment and once before sacrifice. To induce cardiotoxicity in the mouse, four weekly intraperitoneal injections of doxorubicin at 5 mg/kg were administered. After one dose of doxorubicin at 5-6 mg/kg in a mouse, the level of exposure has been estimated to be similar to that of a human individual being given a standard dose of doxorubicin at approximately 60 mg/m^2.

[5] = hESC-CMs, pretreatment in the presence of Dox
[6] = 300 ng/ml GDF15 pretreatment, hESC-CMs exposed to doxorubicin

expression of genes important for mitochondrial function (hESC-CMs [4]; hESC-CMs, doxorubicin alone) | Compound | hESC-CMs displaying nuclear condensation (hESC-CMs [1]; doxorubicin-treated, no pretreatment) [%] | punctation or perinuclear changes of mitochondria (hESC-CMs [2]; doxorubicin-treated cells, no pretreatment, untreated control 5.4±4.2%) [%] | elongated mitochondria (proportion of hESC-CMs) (hESC-CMs [2]; doxorubicin-treated cells, no pretreatment, untreated control 94.6±5.8%) [%] | sarcomere structure (α-actinin immunostaining) (hESC-CMs [3]; hESC-CMs exposed to Dox alone) | Day 28 DBP (C57BL/6J male mice) [mmHg] | Day 28 SBP (C57BL/6J male mice) [mmHg] | Day 0 DBP (C57BL/6J male mice) [mmHg] | Day 0 SBP (C57BL/6J male mice) [mmHg] | extent of nuclear condensation compared with dexrazoxane (hESC-CMs [1]; [5]) | hESC-CMs displaying nuclear condensation (hESC-CMs [1]; pretreated with 300 ng/ml GDF15, then doxorubicin) [%] | elongated mitochondria (hESC-CMs [2]; [6]) [%] | perinuclear mitochondria (hESC-CMs [2]; [6]) [%] | mitochondrial integrity compared with dexrazoxane (hESC-CMs [2]; [5]) | sarcomere structure (α-actinin immunostaining) (hESC-CMs [3]; hESC-CMs, agent only, no doxorubicin) | sarcomeric damage (α-actinin immunostaining) (hESC-CMs [3]; hESC-CMs, pretreatment preceding doxorubicin) | expression of genes important for mitochondrial function (hESC-CMs [4]; hESC-CMs pretreated with GDF15 prior to doxorubicin exposure) | systolic and diastolic blood pressure (C57BL/6J male mice; GDF15 5 mg/kg intraperitoneal before doxorubicin, compared with doxorubicin only)
suppressed | COc1cccc2c1C(=O)c1c(O)c3c(c(O)c1C2=O)C[C@@](O)(C(=O)CO)C[C@@H]3OC1C[C@H](N)[C@H](O)[C@H](C)O1.Cl (stereo partly drawn) [Dox, (8S,10S)-10-[(3-Amino-2,3,6-trideoxy-L-lyxohexopyranosyl)oxy]-7,8,9,10-tetrahydro-6,8,11-trihydroxy-8-(hydroxyacetyl)-1-methoxynaphthacene-5,12-dione hydrochloride, reference compound] | > 40 | 47.3±12.6 | 24.5±17.1 | considerable disruption of sarcomere structure and nuclear condensation | 119 ± 7 | 146 ± 7 | 87 ± 15 | 116 ± 13 |  |  |  |  |  |  |  |  | 
 | GDF15: commercially available recombinant human GDF-15 protein (PeproTech 120-28C), CHO cell-derived, SEQ ID NO: 1 |  |  |  |  | 88 ± 5 | 121 ± 5 | 83 ± 17 | 117 ± 12 | performed similarly to dexrazoxane | 12.8±1.7 | 62.5±11.0 | 13.2±14.7 | performed similarly to dexrazoxane | well-organized, striated sarcomeres | sarcomeric damage was evidently attenuated | improved | significantly lowered

From patent publication US12209112B2, “Methods of preventing or treating diseases, conditions, or disorders associated with chemotherapy” (The Chinese University of Hong Kong, priority 2022, dated 2025)
